Measured values reported in patent US8822469B2, “Pyrrolo[2,3-B]pyrazines useful as inhibitors of ATR kinase” (Vertex Pharmaceuticals Incorporated, priority 2011, dated 2014).

Each compound was assayed against T1, full-length ATR (Homo sapiens, UniProt Q13535) (assay: ATR Inhibition Assay (radioactive-phosphate incorporation)). Details: Ki(app); 5 nM full-length ATR, 10 μM [γ-33P]ATP, 800 μM target peptide, 25° C.
T1 construct: Assays were carried out at 25° C. in the presence of 5 nM full-length ATR
Type: biochemical
Experimental: Compounds were screened for their ability to inhibit ATR kinase using a radioactive-phosphate incorporation assay. Assays were carried out in a mixture of 50 mM Tris/HCl (pH 7.5), 10 mM MgCl2 and 1 mM DTT. Final substrate concentrations were 10 μM [γ-33P]ATP (3mCi 33P ATP/mmol ATP, Perkin Elmer) and 800 μM target peptide (ASELPASQPQPFSAKKK).
Assays were carried out at 25° C. in the presence of 5 nM full-length ATR. An assay stock buffer solution was prepared containing all of the reagents listed above, with the exception of ATP and the test compound of interest. 13.5 μL of the stock solution was placed in a 96 well plate followed by addition of 2 μL of DMSO stock containing serial dilutions of the test compound (typically starting from a final concentration of 15 μM with 3-fold serial dilutions) in duplicate (final DMSO concentration 7%). The plate was pre-incubated for 10 minutes at 25° C. and the reaction initiated by addition of 15 μL [γ-33P]ATP (final concentration 10 μM).
The reaction was stopped after […] by the addition of 30 μL 0.1M phosphoric acid containing 2 mM ATP. A multiscreen phosphocellulose filter 96-well plate (Millipore, Cat no. MAPHN0B50) was pretreated with 100 μL 0.2M phosphoric acid prior to the addition of 45 μL of the stopped assay mixture. The plate was washed with 5×200 μL 0.2M phosphoric acid. After drying, 100 μL Optiphase ‘SuperMix’ liquid scintillation cocktail (Perkin Elmer) was added to the well prior to scintillation counting (1450 Microbeta Liquid Scintillation Counter, Wallac).
After removing mean background values for all of the data points, Ki(app) data were calculated from non-linear regression analysis of the initial rate data using the Prism software package (GraphPad Prism version 3.0cx for Macintosh, GraphPad Software, San Diego Calif., USA).

T1 sequence (Q13535 whole entry): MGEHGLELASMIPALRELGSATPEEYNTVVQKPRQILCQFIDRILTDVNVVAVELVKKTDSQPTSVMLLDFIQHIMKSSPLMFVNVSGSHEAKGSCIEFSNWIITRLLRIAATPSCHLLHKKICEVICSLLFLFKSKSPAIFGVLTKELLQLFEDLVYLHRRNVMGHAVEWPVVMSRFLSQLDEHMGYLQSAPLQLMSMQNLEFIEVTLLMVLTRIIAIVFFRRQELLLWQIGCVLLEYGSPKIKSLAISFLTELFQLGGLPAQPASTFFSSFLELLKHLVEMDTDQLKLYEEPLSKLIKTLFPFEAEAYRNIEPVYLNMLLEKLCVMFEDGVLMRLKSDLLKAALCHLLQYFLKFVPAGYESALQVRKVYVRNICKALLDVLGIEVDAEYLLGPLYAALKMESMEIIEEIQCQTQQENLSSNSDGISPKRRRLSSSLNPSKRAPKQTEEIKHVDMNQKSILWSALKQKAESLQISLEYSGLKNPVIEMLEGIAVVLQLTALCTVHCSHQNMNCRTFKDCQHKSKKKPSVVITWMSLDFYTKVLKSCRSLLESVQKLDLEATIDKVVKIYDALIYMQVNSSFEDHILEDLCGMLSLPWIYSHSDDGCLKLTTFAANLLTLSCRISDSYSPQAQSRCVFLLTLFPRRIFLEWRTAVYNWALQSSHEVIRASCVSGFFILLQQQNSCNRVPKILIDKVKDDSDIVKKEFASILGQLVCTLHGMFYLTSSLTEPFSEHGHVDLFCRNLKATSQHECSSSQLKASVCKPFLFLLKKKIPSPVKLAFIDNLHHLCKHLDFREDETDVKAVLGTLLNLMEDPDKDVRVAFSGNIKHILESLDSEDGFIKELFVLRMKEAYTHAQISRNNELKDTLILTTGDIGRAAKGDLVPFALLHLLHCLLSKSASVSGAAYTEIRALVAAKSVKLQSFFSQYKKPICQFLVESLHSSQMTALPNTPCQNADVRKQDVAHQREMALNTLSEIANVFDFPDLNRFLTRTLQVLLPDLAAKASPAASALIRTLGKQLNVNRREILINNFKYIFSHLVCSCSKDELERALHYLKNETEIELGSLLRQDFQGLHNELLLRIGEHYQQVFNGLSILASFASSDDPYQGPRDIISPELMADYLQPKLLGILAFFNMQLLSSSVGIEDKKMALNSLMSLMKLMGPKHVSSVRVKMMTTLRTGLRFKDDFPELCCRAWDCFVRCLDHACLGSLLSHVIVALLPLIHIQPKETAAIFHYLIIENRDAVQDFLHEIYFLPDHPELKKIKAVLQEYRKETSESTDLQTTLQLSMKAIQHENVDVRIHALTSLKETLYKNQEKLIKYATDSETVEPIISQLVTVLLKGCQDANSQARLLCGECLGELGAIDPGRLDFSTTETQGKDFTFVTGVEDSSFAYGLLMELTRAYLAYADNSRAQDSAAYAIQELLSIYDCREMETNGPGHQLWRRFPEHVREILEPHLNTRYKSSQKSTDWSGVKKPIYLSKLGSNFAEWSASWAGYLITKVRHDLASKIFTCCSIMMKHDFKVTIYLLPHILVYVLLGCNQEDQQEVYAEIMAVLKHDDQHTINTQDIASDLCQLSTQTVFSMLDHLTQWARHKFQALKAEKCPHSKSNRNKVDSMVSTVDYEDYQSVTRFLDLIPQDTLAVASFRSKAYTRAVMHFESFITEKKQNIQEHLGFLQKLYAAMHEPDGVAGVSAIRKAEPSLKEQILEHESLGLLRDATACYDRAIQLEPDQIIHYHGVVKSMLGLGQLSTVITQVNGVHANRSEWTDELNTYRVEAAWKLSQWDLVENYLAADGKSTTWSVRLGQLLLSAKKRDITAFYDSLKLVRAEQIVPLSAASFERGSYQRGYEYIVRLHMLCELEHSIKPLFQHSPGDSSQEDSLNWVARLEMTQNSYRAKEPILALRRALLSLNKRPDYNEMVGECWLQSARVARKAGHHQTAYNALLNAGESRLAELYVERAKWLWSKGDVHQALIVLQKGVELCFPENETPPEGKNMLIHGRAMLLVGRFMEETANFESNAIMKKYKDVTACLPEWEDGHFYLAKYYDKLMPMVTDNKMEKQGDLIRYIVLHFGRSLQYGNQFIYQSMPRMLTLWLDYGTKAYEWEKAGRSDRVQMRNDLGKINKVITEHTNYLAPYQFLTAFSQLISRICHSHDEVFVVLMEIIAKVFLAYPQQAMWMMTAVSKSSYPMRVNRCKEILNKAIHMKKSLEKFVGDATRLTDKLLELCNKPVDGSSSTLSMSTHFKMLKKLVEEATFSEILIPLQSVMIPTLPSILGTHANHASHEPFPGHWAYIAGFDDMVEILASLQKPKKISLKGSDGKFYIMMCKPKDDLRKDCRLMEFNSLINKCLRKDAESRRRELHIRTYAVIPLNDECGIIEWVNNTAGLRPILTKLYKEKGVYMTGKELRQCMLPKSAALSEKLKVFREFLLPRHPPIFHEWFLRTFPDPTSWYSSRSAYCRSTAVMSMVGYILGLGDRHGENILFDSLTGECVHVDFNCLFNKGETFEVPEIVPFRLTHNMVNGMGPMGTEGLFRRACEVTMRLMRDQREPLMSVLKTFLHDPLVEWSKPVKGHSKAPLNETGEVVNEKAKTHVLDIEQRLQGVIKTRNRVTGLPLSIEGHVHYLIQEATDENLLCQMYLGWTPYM

| SMILES | Ki [µM] |
| --- | --- |
| CC(C)S(=O)(=O)c1ccc(-c2cnc3[nH]cc(NC(=O)C4CCOC4)c3n2)cc1 (stereo not shown) [Compound I-36, N-[2-(4-isopropylsulfonylphenyl)-5H-pyrrolo[2,3-b]pyrazin-7-yl]tetrahydrofuran-3-carboxamide] | 0.1 to 0.5 |
| CC(C)S(=O)(=O)c1ccc(-c2cnc3[nH]cc(NC(=O)Cc4nnn[nH]4)c3n2)cc1 [Compound I-38, N-[2-(4-isopropylsulfonylphenyl)-5H-pyrrolo[2,3-b]pyrazin-7-yl]-2-(1H-tetrazol-5-yl)acetamide] | 0.01 to 0.1 |
| CC(C)S(=O)(=O)c1ccc(-c2cnc3[nH]cc(NC(=O)COc4ccccc4)c3n2)cc1 [Compound I-39, N-[2-(4-isopropylsulfonylphenyl)-5H-pyrrolo[2,3-b]pyrazin-7-yl]-2-phenoxy-acetamide] | 0.1 to 0.5 |
| CC(C)S(=O)(=O)c1ccc(-c2cnc3[nH]cc(NC(=O)c4ccccn4)c3n2)cc1 [Compound I-40, N-[2-(4-isopropylsulfonylphenyl)-5H-pyrrolo[2,3-b]pyrazin-7-yl]pyridine-2-carboxamide] | 0.01 to 0.1 |
| CC(C)S(=O)(=O)c1ccc(-c2cnc3[nH]cc(NC(=O)c4ccc(N5CCC[C@H](N)C5)cc4)c3n2)cc1 [Compound I-42, 4-[(3S)-3-amino-1-piperidyl]-N-[2-(4-isopropylsulfonylphenyl)-5H-pyrrolo[2,3-b]pyrazin-7-yl]benzamide] | 0.01 to 0.1 |
| CC(C)S(=O)(=O)c1ccc(-c2cnc3[nH]cc(NC(=O)Nc4ccccc4)c3n2)cc1 [Compound I-43, 1-[2-(4-isopropylsulfonylphenyl)-5H-pyrrolo[2,3-b]pyrazin-7-yl]-3-phenyl-urea] | 0.01 to 0.1 |

Further lines, results first:

| Ki [µM] | SMILES |
| --- | --- |
| 0.01 to 0.1 | CC(C)S(=O)(=O)c1ccc(-c2cnc3[nH]cc(NC(=O)c4cncs4)c3n2)cc1 [Compound I-34, N-[2-(4-isopropylsulfonylphenyl)-5H-pyrrolo[2,3-b]pyrazin-7-yl]thiazole-5-carboxamide] |
| 0.01 to 0.1 | CC(C)S(=O)(=O)c1ccc(-c2cnc3[nH]cc(NC(=O)C4CCNCC4)c3n2)cc1 [Compound I-35, N-[2-(4-isopropylsulfonylphenyl)-5H-pyrrolo[2,3-b]pyrazin-7-yl]piperidine-4-carboxamide] |
| 0.01 to 0.1 | CC(C)S(=O)(=O)c1ccc(-c2cnc3[nH]cc(NC(=O)CC#N)c3n2)cc1 [Compound I-37, 2-cyano-N-[2-(4-isopropylsulfonylphenyl)-5H-pyrrolo[2,3-b]pyrazin-7-yl]acetamide] |
| ≤ 0.01 | CC(C)S(=O)(=O)c1ccc(-c2cnc3[nH]cc(NC(=O)c4ccc(N5CC[C@@H](N)C5)cc4)c3n2)cc1 [Compound I-41, 4-[(3R)-3-aminopyrrolidin-1-yl]-N-[2-(4-isopropylsulfonylphenyl)-5H-pyrrolo[2,3-b]pyrazin-7-yl]benzamide] |
